{"source": "ChEMBL document CHEMBL5678818", "about": "“Discovery of potent SOS1 inhibitors that block RAS activation via disruption of the RAS-SOS1 interaction” (Proc Natl Acad Sci U S A, 2019)", "key": {"[1]": {"molecular_target": "T1, Son of sevenless homolog 1 (Homo sapiens) (UniProt Q07889)", "T1 sequence (whole entry)": "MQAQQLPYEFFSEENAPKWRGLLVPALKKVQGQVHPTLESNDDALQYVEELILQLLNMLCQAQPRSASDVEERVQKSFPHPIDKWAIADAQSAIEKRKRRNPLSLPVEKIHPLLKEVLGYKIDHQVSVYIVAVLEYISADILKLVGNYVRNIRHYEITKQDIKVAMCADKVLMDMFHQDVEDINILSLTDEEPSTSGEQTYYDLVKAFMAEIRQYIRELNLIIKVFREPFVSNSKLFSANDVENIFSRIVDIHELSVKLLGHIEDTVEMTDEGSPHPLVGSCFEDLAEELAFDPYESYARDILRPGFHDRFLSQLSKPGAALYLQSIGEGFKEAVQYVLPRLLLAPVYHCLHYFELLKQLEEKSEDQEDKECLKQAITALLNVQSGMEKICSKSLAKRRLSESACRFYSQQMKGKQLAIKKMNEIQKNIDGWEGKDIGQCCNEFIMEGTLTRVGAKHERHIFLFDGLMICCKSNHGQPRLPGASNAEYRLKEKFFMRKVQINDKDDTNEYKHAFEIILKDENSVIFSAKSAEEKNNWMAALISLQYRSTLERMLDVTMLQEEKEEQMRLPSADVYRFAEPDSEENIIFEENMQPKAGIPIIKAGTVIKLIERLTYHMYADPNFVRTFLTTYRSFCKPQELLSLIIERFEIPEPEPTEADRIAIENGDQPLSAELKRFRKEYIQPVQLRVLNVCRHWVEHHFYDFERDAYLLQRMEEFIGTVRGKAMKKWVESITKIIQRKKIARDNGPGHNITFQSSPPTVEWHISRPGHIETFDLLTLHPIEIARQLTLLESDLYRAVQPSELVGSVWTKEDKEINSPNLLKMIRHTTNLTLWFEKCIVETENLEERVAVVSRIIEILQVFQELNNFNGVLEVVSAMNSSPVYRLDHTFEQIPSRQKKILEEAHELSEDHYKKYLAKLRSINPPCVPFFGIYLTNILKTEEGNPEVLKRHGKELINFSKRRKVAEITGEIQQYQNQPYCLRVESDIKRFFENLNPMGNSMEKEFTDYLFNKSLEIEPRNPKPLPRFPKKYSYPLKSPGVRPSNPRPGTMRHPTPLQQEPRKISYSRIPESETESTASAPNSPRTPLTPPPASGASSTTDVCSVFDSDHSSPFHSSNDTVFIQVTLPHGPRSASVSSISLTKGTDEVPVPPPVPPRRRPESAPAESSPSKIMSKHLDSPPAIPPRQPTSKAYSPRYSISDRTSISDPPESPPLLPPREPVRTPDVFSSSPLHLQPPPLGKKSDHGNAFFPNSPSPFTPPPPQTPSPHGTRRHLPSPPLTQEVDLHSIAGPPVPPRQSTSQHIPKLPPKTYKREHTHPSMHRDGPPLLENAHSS", "assay": "Binding affinity to N-terminal His10-tagged wild-type recombinant human SOS1 catalytic domain (564 to 1049 residues) expressed in Escherichia coli assessed as change in Gibbs free energy by ITC analysis"}, "[2]": {"molecular_target": "Calcium/calmodulin-dependent protein kinase type II subunit delta (Homo sapiens) (UniProt Q13557)", "assay": "Inhibition of CAMK2D (unknown origin) assessed as residual activity at 100 nM by KINOMEscan analysis relative to control"}, "[3]": {"molecular_target": "Ephrin type-A receptor 2 (Homo sapiens) (UniProt P29317)", "sequence (P29317 whole entry)": "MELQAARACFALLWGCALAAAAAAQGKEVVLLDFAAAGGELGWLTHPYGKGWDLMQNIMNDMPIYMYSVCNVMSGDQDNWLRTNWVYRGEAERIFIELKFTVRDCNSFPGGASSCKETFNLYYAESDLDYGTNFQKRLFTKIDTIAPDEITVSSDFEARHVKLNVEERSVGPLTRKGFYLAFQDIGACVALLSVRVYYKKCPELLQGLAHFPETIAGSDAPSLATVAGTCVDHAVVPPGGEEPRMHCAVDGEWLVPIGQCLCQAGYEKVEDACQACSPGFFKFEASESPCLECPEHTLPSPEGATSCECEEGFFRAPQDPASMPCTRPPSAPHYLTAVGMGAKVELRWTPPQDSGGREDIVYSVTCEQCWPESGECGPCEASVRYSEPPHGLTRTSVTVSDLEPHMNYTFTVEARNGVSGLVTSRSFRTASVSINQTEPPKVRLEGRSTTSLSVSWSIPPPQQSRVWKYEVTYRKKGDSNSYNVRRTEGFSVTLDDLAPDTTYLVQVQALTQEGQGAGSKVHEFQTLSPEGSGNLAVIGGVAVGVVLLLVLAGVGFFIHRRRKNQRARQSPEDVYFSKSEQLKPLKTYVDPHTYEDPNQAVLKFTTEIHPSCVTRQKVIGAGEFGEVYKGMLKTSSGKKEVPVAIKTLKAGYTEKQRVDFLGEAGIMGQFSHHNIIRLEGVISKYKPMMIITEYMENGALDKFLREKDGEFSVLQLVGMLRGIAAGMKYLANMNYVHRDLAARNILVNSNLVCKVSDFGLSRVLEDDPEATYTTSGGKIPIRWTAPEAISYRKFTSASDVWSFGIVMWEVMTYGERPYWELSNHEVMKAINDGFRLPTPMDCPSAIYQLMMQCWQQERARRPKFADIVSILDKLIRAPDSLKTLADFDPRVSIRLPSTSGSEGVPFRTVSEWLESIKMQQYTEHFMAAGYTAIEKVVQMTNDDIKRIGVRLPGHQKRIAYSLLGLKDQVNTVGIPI", "assay": "Inhibition of EPHA2 (unknown origin) assessed as residual activity at 100 nM by KINOMEscan analysis relative to control"}, "[4]": {"molecular_target": "Tyrosine-protein kinase JAK1 (Homo sapiens) (UniProt P23458)", "sequence (P23458 whole entry, the tested form may be a part)": "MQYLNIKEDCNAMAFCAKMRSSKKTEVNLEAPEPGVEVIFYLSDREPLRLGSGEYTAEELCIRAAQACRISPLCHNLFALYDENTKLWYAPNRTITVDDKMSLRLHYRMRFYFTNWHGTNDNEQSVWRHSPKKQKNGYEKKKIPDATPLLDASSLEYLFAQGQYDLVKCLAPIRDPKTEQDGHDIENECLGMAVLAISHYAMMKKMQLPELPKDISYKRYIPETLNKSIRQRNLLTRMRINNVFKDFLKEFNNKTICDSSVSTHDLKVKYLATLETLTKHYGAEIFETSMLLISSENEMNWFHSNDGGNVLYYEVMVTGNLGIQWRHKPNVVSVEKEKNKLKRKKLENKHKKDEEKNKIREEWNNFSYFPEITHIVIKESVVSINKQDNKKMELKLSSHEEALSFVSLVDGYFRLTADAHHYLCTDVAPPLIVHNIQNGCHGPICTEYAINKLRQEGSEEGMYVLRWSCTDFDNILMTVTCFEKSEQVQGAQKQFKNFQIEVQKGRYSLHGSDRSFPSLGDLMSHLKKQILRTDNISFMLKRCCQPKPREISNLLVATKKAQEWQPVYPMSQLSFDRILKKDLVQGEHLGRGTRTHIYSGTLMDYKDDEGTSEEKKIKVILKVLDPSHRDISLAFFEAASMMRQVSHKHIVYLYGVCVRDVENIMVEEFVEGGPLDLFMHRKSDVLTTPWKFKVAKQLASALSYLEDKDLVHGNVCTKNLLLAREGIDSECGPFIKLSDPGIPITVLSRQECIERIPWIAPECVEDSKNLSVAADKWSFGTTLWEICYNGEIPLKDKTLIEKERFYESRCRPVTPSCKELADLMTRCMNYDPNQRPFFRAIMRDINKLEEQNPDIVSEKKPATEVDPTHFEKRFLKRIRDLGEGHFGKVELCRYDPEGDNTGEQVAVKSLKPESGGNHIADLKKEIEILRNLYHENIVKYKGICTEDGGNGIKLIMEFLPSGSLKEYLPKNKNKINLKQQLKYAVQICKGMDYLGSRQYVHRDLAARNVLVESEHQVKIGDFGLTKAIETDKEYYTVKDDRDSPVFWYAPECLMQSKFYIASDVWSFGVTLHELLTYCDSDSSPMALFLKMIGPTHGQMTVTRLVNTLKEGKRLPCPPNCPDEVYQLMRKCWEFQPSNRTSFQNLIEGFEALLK", "assay": "Inhibition of JAK1 JH2 pseudokinase domain (unknown origin) assessed as residual activity at 100 nM by KINOMEscan analysis relative to control"}, "[5]": {"molecular_target": "Tyrosine-protein kinase JAK2 (Homo sapiens) (UniProt O60674)", "sequence (O60674 whole entry, the tested form may be a part)": "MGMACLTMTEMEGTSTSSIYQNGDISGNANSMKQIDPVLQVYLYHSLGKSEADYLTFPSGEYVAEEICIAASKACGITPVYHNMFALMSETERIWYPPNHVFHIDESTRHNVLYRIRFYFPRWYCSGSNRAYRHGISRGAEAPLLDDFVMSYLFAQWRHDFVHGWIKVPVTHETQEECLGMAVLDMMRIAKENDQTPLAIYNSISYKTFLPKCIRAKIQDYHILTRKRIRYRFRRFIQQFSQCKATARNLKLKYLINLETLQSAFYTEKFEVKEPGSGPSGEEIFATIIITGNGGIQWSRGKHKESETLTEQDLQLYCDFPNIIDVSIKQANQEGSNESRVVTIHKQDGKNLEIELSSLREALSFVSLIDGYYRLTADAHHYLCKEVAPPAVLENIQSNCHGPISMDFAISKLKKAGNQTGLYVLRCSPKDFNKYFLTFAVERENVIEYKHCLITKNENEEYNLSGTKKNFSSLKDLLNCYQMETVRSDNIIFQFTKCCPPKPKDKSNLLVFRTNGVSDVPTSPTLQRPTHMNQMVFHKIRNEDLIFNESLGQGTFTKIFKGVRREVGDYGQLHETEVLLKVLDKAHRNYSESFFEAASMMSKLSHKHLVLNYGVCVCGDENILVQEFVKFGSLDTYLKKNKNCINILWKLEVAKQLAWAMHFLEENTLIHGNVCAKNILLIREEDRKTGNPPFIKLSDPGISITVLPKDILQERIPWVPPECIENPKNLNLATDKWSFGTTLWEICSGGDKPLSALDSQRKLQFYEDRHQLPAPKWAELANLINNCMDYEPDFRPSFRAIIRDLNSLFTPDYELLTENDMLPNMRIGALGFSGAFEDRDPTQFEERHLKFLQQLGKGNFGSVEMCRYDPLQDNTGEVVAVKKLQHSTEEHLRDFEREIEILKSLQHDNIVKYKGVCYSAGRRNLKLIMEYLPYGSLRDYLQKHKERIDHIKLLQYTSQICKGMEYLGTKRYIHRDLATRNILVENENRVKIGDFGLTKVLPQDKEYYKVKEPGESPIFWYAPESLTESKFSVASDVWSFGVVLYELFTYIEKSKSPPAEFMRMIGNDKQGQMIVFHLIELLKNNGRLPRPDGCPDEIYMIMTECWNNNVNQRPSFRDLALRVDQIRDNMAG", "assay": "Inhibition of JAK2 JH1 catalytic domain (unknown origin) assessed as residual activity at 100 nM by KINOMEscan analysis relative to control"}, "[6]": {"molecular_target": "Cyclin-dependent kinase 15 (Homo sapiens) (UniProt Q96Q40)", "sequence (Q96Q40 whole entry)": "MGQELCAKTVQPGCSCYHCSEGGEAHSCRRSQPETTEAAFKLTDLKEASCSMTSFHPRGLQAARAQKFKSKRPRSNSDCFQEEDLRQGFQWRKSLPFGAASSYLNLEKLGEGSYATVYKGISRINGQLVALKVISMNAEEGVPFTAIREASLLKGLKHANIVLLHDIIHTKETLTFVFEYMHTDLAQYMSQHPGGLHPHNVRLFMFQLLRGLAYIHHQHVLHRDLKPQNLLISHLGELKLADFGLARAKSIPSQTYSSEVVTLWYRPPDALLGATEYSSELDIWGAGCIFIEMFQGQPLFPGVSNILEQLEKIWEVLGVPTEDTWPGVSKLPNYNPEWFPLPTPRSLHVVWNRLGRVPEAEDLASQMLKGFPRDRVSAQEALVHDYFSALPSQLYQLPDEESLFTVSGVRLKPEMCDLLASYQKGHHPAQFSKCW", "assay": "Inhibition of PFTAIRE2 (unknown origin) assessed as residual activity at 100 nM by KINOMEscan analysis relative to control"}, "[7]": {"molecular_target": "T2, Serine/threonine-protein kinase D3 (Homo sapiens) (UniProt O94806)", "T2 sequence (whole entry)": "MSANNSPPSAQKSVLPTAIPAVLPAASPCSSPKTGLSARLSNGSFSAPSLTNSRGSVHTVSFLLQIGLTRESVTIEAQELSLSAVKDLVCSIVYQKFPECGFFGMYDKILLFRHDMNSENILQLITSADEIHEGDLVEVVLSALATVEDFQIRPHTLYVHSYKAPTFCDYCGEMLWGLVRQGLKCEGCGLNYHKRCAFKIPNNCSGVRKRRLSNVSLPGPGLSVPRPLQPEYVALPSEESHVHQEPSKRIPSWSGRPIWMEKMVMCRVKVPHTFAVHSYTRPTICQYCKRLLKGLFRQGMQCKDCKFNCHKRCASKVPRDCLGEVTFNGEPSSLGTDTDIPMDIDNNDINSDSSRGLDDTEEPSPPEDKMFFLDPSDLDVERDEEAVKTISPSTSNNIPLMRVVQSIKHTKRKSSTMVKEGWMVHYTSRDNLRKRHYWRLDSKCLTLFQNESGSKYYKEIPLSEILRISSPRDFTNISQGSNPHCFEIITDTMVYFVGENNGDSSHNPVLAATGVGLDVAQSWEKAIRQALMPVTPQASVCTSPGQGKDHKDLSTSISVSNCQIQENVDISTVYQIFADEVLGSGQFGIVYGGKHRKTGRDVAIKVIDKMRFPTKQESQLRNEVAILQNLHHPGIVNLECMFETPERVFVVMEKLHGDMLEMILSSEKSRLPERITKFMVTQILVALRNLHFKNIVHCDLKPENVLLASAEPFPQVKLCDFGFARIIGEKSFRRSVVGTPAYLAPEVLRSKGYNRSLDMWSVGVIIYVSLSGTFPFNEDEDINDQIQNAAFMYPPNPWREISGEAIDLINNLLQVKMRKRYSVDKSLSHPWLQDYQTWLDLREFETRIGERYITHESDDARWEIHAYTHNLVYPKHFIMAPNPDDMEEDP", "assay": "Inhibition of PRKD3 (unknown origin) assessed as residual activity at 100 nM by KINOMEscan analysis relative to control"}, "[8]": {"molecular_target": "RAF proto-oncogene serine/threonine-protein kinase (Homo sapiens) (UniProt P04049)", "assay": "Inhibition of RAF1 (unknown origin) assessed as residual activity at 100 nM by KINOMEscan analysis relative to control"}, "[9]": {"molecular_target": "Ribosomal protein S6 kinase alpha-5 (Homo sapiens) (UniProt O75582)", "sequence (O75582 whole entry, looked up, the tested form may be a part)": "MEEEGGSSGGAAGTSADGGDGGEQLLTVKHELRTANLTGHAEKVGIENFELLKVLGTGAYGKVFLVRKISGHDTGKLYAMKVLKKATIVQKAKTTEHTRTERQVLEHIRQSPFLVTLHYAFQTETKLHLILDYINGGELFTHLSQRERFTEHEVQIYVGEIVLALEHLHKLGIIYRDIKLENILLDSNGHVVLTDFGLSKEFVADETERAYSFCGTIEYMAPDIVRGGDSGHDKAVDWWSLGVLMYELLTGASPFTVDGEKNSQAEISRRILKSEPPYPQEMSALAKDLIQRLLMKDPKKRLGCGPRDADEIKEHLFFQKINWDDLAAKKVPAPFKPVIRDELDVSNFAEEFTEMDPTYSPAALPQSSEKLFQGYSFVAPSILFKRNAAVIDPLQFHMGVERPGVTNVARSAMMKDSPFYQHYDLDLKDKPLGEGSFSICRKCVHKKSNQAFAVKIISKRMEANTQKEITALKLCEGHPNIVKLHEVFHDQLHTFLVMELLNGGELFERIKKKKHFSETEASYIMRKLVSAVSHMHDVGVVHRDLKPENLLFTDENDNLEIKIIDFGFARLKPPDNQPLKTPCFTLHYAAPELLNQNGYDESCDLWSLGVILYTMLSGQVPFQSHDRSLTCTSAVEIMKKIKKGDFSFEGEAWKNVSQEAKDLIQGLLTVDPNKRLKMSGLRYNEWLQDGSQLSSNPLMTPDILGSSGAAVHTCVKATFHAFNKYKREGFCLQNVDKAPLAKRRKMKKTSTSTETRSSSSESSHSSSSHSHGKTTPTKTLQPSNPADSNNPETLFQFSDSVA", "assay": "Inhibition of C-terminal RPS6KA5 kinetic domain 2 (unknown origin) assessed as residual activity at 100 nM by KINOMEscan analysis relative to control"}, "[10]": {"molecular_target": "Tyrosine-protein kinase Yes (Homo sapiens) (UniProt P07947)", "sequence (P07947 2-543 limits assumed)": "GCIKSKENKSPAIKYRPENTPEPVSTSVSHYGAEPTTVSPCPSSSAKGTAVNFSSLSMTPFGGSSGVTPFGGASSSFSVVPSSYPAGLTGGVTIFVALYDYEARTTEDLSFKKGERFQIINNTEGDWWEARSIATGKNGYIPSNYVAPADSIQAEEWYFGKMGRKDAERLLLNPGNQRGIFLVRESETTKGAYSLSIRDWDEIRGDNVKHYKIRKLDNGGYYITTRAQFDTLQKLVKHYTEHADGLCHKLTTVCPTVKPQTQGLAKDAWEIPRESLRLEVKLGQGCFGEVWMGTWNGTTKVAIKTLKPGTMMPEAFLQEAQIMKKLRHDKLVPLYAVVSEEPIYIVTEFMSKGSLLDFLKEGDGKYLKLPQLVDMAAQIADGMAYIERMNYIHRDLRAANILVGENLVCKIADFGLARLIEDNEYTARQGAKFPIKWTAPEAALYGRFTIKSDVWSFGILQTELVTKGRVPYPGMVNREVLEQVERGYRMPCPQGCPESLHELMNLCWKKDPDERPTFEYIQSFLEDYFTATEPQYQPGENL", "assay": "Inhibition of YES (unknown origin) assessed as residual activity at 100 nM by KINOMEscan analysis relative to control"}}, "data": [{"smiles": "COc1cc2ncnc(N[C@H](C)c3cccc4ccccc34)c2cc1OC", "values": [{"measurement": "deltaG", "setting": "[1]", "value": -8.6, "unit": "kcal/mol"}, {"measurement": "Activity", "setting": "[2]", "value": 70, "unit": "%"}, {"measurement": "Activity", "setting": "[3]", "value": 82, "unit": "%"}, {"measurement": "Activity", "setting": "[4]", "value": 100, "unit": "%"}, {"measurement": "Activity", "setting": "[5]", "value": 93, "unit": "%"}, {"measurement": "Activity", "setting": "[6]", "value": 100, "unit": "%"}, {"measurement": "Activity", "setting": "[7]", "value": 100, "unit": "%"}, {"measurement": "Activity", "setting": "[8]", "value": 85, "unit": "%"}, {"measurement": "Activity", "setting": "[9]", "value": 52, "unit": "%"}, {"measurement": "Activity", "setting": "[10]", "value": 100, "unit": "%"}]}]}
